Among the test systems are Acinetobacter baumannii; Escherichia coli 170; Escherichia coli KF111; Escherichia coli UB1005; Escherichia coli KF130; Micrococcus luteus; Listeria innocua; Staphylococcus aureus; Escherichia coli.
Common to all, as to experiment: ≥ marks a high value that may be exact or a test limit, other limits are often not marked, values filed in µg/mL are converted to µM
Test [1] concerns Staphylococcus aureus USA 300.
Test [2] relates to Staphylococcus epidermidis ATCC 35984.
The test system of test [3] is Pseudomonas aeruginosa 4677.
Test [4] deals with Enterobacter cloacae 2524.
The subject of test [5] is Escherichia coli ATCC 25922.
For test [6], the system named is Klebsiella pneumoniae 913.
Test [7] relates to Pseudomonas aeruginosa ATCC 27853.
Test [8] relates to Pseudomonas aeruginosa K799.
Test [9] deals with Staphylococcus epidermidis.
In test [10] the test system is Pseudomonas aeruginosa H374.
For test [11], the system named is Pseudomonas aeruginosa H744.
The test system of test [12] is Salmonella enterica subsp. enterica serovar Typhimurium ATCC 14028s.
In test [13] the test system is Salmonella enterica subsp. enterica serovar Enteritidis.
For test [14], the system named is Staphylococcus aureus USA 100.
Test [15] deals with Pseudomonas aeruginosa ATCC 9027.
In test [16] the test system is Candida albicans ATCC 90028.
The subject of test [17] is Staphylococcus aureus ATCC 25923.
Test [18] deals with Staphylococcus aureus ATCC 33591.
Test [19] concerns Candida albicans ATCC 64550.
The test system of test [20] is Staphylococcus aureus TK784.
Test [21] has as its system Staphylococcus aureus ATCC 6538P.
In test [22] the test system is Shigella dysenteriae ATCC 9752.
Test [23] has as its system Micrococcus luteus ATCC 10240.
Test [24] concerns Bacillus subtilis ATCC 6633.
Test [25] has as its system Salmonella enterica subsp. enterica serovar Typhimurium ATCC 14028.
The test system of test [26] is Staphylococcus epidermidis ATCC 12228.
For test [27], the system named is Klebsiella pneumoniae ATCC 10031.

Molecules are shown by their SMILES. Values after ≈ are worked out from the molar mass of the structure shown.

With `CC[C@H](C)[C@H](NC(=O)CN)C(=O)N[C@H](C(=O)N[C@@H](CCCCN)C(=O)N[C@H](C(=O)N[C@H](C(=O)N[C@@H](CCCCN)C(=O)N[C@@H](CO)C(=O)N[C@@H](CC(C)C)C(=O)N[C@H](C(=O)N[C@@H](CCC(=O)O)C(=O)N[C@@H](CCC(N)=O)C(=O)N[C@@H](Cc1ccccc1)C(=O)N[C@H](C(=O)NCC(=O)N[C@@H](CCCCN)C(=O)O)[C@@H](C)O)[C@@H](C)CC)[C@@H](C)CC)C(C)C)[C@@H](C)CC` [GIIKVIKSLIEQFTGK], the minimum inhibitory concentration (MIC) (in general, the smallest concentration in the dilution series that meets the test's criterion for growth inhibition) in test [1] is not below 64 µM; in [2] it was not below 42 µM.
Turning to `CC[C@H](C)[C@H](N)C(=O)N[C@@H](C)C(=O)N[C@@H](CO)C(=O)N[C@@H](CCCCN)C(=O)N[C@H](C(=O)N[C@@H](C)C(=O)N[C@@H](CC(N)=O)C(=O)N[C@H](C(=O)N[C@H](C(=O)N[C@@H](CCC(N)=O)C(=O)N[C@@H](CCCCN)C(=O)N[C@@H](CC(C)C)C(=O)N[C@@H](CCCCN)C(=O)N[C@@H](CCCN=C(N)N)C(=O)N[C@@H](CCCCN)C(=O)N[C@@H](C)C(=O)N[C@@H](CCCCN)C(=O)N[C@@H](CC(N)=O)C(=O)N[C@@H](C)C(=O)N[C@H](C(=O)O)C(C)C)C(C)C)[C@@H](C)O)C(C)C` [IASKVANTVQKLKRKAKNAV], the MIC in the test with Acinetobacter baumannii was not below 50 µM; in the test on Escherichia coli 170, not below 50 µM; in test [3], not below 50 µM; in test [4], not below 50 µM; in test [5], 25 µM (≈ 54.2 µg/mL); in test [6], not below 50 µM.
On to `CC[C@H](C)[C@H](NC(=O)[C@@H]1CCCN1C(=O)[C@H](CCCCN)NC(=O)[C@H](CC(C)C)NC(=O)[C@H](C)NC(=O)[C@@H](NC(=O)[C@H](Cc1cnc[nH]1)NC(=O)[C@H](CC(C)C)NC(=O)[C@@H](NC(=O)[C@@H](NC(=O)[C@H](CCCN=C(N)N)NC(=O)[C@H](C)NC(=O)[C@@H]1CCCN1C(=O)[C@H](CO)NC(=O)[C@H](CCCCN)NC(=O)[C@H](Cc1ccccc1)NC(=O)[C@@H](NC(=O)[C@H](CCCCN)NC(=O)[C@H](CC(C)C)NC(=O)[C@H](Cc1ccccc1)NC(=O)[C@H](CO)NC(=O)[C@H](CCCCN)NC(=O)[C@H](Cc1c[nH]c2ccccc12)NC(=O)[C@@H](N)CCCCN)[C@@H](C)O)[C@@H](C)O)C(C)C)[C@@H](C)O)C(=O)N[C@@H](CO)C(=O)N[C@@H](CO)C(=O)O` [KWKSFLKTFKSPARTVLHTALKPISS], for which the MIC in the test on Escherichia coli KF111 is 1.35 µM (≈ 4 µg/mL); in test [7] it was 4 µM (≈ 11.9 µg/mL); in test [8], 10.8 µM (≈ 32 µg/mL); in test [9] it was 21.5 µM (≈ 64 µg/mL); against Escherichia coli UB1005, 1.35 µM (≈ 4 µg/mL); in test [10], 10.8 µM (≈ 32 µg/mL). Further, the minimum inhibitory concentration (MIC) in the test on Escherichia coli KF130 was 2.69 µM (≈ 8 µg/mL); in test [11] it was 10.8 µM (≈ 32 µg/mL); in [12] it was 10.8 µM (≈ 32 µg/mL).
`CC[C@H](C)[C@H](NC(=O)[C@@H]1CCCN1C(=O)[C@H](CCCCN)NC(=O)[C@H](CC(C)C)NC(=O)[C@H](C)NC(=O)[C@@H](NC(=O)[C@H](Cc1ccc(O)cc1)NC(=O)[C@H](Cc1ccccc1)NC(=O)[C@@H](NC(=O)[C@@H](NC(=O)[C@H](CCCCN)NC(=O)[C@@H](NC(=O)[C@@H]1CCCN1C(=O)[C@H](CO)NC(=O)[C@H](CCCCN)NC(=O)[C@H](CC(C)C)NC(=O)[C@@H](NC(=O)[C@H](CCCCN)NC(=O)[C@H](CC(C)C)NC(=O)[C@H](Cc1ccccc1)NC(=O)[C@H](CO)NC(=O)[C@H](CCCCN)NC(=O)[C@H](Cc1c[nH]c2ccccc12)NC(=O)[C@@H](N)CCCCN)[C@@H](C)O)C(C)C)[C@@H](C)O)C(C)C)[C@@H](C)O)C(=O)N[C@@H](CO)C(=O)N[C@@H](CO)C(=O)O` [KWKSFLKTLKSPVKTVFYTALKPISS]: the MIC with Escherichia coli KF111 stood at 0.667 µM (≈ 2 µg/mL); in [8] it was 5.34 µM (≈ 16 µg/mL); in [9] it was 10.7 µM (≈ 32 µg/mL); against Escherichia coli UB1005 it was 0.667 µM (≈ 2 µg/mL); in test [10], 5.34 µM (≈ 16 µg/mL); in the test with Escherichia coli KF130, 0.667 µM (≈ 2 µg/mL). For the same compound, the minimal inhibitory concentration (MIC) in [11] and in test [12] was 5.34 µM (≈ 16 µg/mL) throughout.
Consider `NCCCCC(N)C(=O)NC(Cc1ccc(O)cc1)C(=O)NC(CCCN=C(N)N)C(=O)O` (centres undefined) [KYR], for which the minimum inhibitory concentration (MIC) was not below 100 µM in test [1]; 1 µM (≈ 0.466 µg/mL) in test [13]; 2 µM (≈ 0.931 µg/mL) against Micrococcus luteus; not below 100 µM in test [14]; more than 100 µM in [15]; 1 µM (≈ 0.466 µg/mL) in the test with Listeria innocua. In addition, the MIC in test [16] is not below 100 µM; with Staphylococcus aureus, 1 µM (≈ 0.466 µg/mL); against Escherichia coli it was 1 µM (≈ 0.466 µg/mL).
In the case of `CC[C@H](C)[C@H](NC(=O)[C@H](CCCCN)NC(=O)[C@@H](NC(=O)[C@H](Cc1ccccc1)NC(=O)[C@H](C)NC(=O)[C@H](CCCCN)NC(=O)CNC(=O)[C@H](Cc1ccccc1)NC(=O)[C@H](CCCCN)NC(=O)[C@H](CCCCN)NC(=O)[C@H](C)NC(=O)[C@H](CCCCN)NC(=O)[C@H](CCCCN)NC(=O)[C@@H](N)CC(C)C)C(C)C)C(=O)N[C@@H](CC(C)C)C(=O)N[C@@H](CCCCN)C(=O)N[C@@H](CCCCN)C(N)=O` [LKKAKKFGKAFVKILKK], the minimal inhibitory concentration (MIC) in test [7] was 1.43 µM (≈ 2.83 µg/mL); in test [17], more than 259 µM; in test [2] it was 8.1 µM (≈ 16 µg/mL); in test [18], not below 259 µM.
As to `CC(C)C[C@H](NC(=O)[C@H](Cc1c[nH]c2ccccc12)NC(=O)[C@H](CCCCN)NC(=O)[C@H](CC(C)C)NC(=O)[C@H](CC(C)C)NC(=O)[C@H](Cc1c[nH]c2ccccc12)NC(=O)[C@H](CCCCN)NC(=O)[C@H](CC(C)C)NC(=O)[C@@H](N)CC(C)C)C(=O)N[C@@H](CCCCN)C(=O)N[C@@H](CCCCN)C(N)=O` [LLKWLLKWLKK], the minimum inhibitory concentration (MIC) was 6.81 µM (≈ 9.99 µg/mL) in test [7]; not below 100 µM in test [19]; 3.4 µM (≈ 5 µg/mL) in test [20]; 0.885 µM (≈ 1.3 µg/mL) in [21]; 6.81 µM (≈ 9.99 µg/mL) in test [22]; 0.885 µM (≈ 1.3 µg/mL) in test [23]. Moreover, the MIC in test [24] was 0.885 µM (≈ 1.3 µg/mL); in test [25] it was 27.2 µM (≈ 40 µg/mL); in test [5], 6.81 µM (≈ 9.99 µg/mL); in test [26] it was 0.885 µM (≈ 1.3 µg/mL); in test [27], 13.6 µM (≈ 20 µg/mL).

The record behind these values is DBAASP.
